This is an account of results in US7060428B2, “Methods and compositions useful for the prediction of blood-brain barrier permeation” (Wyeth, priority 2001, dated 2006).

Each structure is given as a SMILES string.

A word on the Papp: it is the rate of passage across a membrane or cell layer, normalised by area and donor concentration. A higher Papp goes with fast passage.

This data set in a line: Parallel artificial membrane permeability assay (PAMPA) for blood-brain barrier permeation, PSR4p analyzer. To be noted: for Pe (linear velocity of permeation): pH 7.4 buffer, 18 h, ambient temperature, literature compounds, averaged; for Papp at 18 h, 25 µg/mL: pig, PAMPA, pH 7.4. The source says:
In actual practice, a solution of known concentration of a compound or mixture of compounds in a buffer solution is separated from a buffer solution containing 0% concentration of said compound or mixture of compounds by a porous filter membrane impregnated with a mixture of brain polar lipid extract and dodecane in such a way that the surface of each buffer solution is in contact with opposite sides of said impregnated membrane. After a measured period of time, the concentration of said compound or mixture of compounds is determined for each buffer solution and the rate of diffusion is calculated.
In one embodiment of the invention, a 96-well plate filled with solutions of a known concentration of test sample in a buffer solution (donor) may be covered with a 96-well filter plate wherein the porous filter membrane is impregnated with a mixture of brain polar lipid extract and dodecane and the wells are filled with a buffer solution containing 0% concentration of test sample (acceptor) such that the surface of each buffer solution is in contact with opposite sides of said impregnated filter membrane; after a measured period of time, the donor plate and acceptor plate are separated, the concentration of sample in each buffer solution is determined and the rate of permeation is calculated.
In another embodiment of the invention, a high through-put permeability instrument such as the PSR4p instrument manufactured by pION Inc., Woburn, Mass. may be utilized. In this embodiment, a parallel artificial membrane assay (PAMPA) technique is employed using as artificial membrane a porous filter membrane impregnated with a mixture of brain polar lipid extract and dodecane.
A 100 μL volume of each stock solution is placed into one well of a 96-well plate, and the well plate is placed in a PSR4p permeability analyzer manufactured by pION, Inc., Woburn, Mass. A 10 μL volume of stock solution is robotically added to a deep 96-well plate containing 2.0 mL of pH 7.4 buffer solution. The resultant mixture is mechanically stirred to form the donor solution. A 200 μL volume of each donor solution is placed robotically into 3 wells of a 96-well plate to afford the donor plate. A vial containing 20 mg of porcine polar brain lipid extract manufactured by Avanti Polar Lipids, Inc., Alabaster, Ala., dissolved in 1 mL of dodecane is placed in the reservoir of the PSR4p instrument. A 4 μL volume of this brain lipid solution is placed on the filter surface of each well of a 96-well microtiter filter well plate manufactured by Millipore Corp., Bedford, Mass., wherein the filter is a porous (0.45 μm) polyvinylidenefluoride material approximately 104 μm in thickness. The microtiter plate is then manually placed on an orbital shaker for 1 minute to yield a 96-well microtiter plate having a filter membrane permeated with a 2.0% wt/vol solution of porcine polar brain lipid extract in dodecane. A 200 μL volume of pH 7.4 buffer is robotically inserted into the wells of the thus-prepared microtiter 96-well filter plate to give a receptor plate, this receptor plate is placed on the donor plate to form a sandwich and allowed to stand at ambient temperature for 18 h.
A plate washer manufactured by Tecan, Hombrechin-tikon, Switzerland is then used to prepare a UV transparent 96-well plate (UV plate). The receptor plate is removed from the sandwich, a 150 μL volume of the receptor solution is robotically placed in the UV plate, and the UV absorption at 190–500 nm of each receptor well is recorded. The UV plate is then replaced in the plate washer, washed again and a 150 μL volume of the donor solution is robotically placed in the UV plate and the UV absorption at 190–500 nm of each donor well is recorded.
Background: In PAMPA a lipid-coated filter parts donor from acceptor wells.

As to `CN(C)C(=O)C(CCN1CCC(O)(c2ccc(Cl)cc2)CC1)(c1ccccc1)c1ccccc1` [Loperamide], the “Pe (linear velocity of permeation)” value is recorded as 0.00 10^−6 cm/s and the Papp at 18 h, 25 µg/mL is below 2 ×10⁻⁶ cm/s.
For `CC(C)(C)c1ccc(C(O)CCCN2CCC(C(O)(c3ccccc3)c3ccccc3)CC2)cc1` (stereo not shown) [Terfenadine] the same measures were 0.00 10^−6 cm/s and below 2 ×10⁻⁶ cm/s.
With `NCCc1ccc(O)c(O)c1` [Dopamine], the “Pe (linear velocity of permeation)” value is recorded as 0.16 10^−6 cm/s and the Papp at 18 h, 25 µg/mL is below 2 ×10⁻⁶ cm/s.
For `Cc1cc(NC(=O)C2=C(O)c3ccccc3S(=O)(=O)N2C)no1` [Isoxicam] the same measures were 0.25 10^−6 cm/s and below 2 ×10⁻⁶ cm/s.
As for `CN1C(=O)CC(=O)N(c2ccccc2)c2cc(Cl)ccc21` [Clobazam], the “Pe (linear velocity of permeation)” value is 16.85 10^−6 cm/s and the Papp at 18 h, 25 µg/mL is above 4 ×10⁻⁶ cm/s.
For `CN1C(C(=O)Nc2ccccn2)=C(O)c2sccc2S1(=O)=O` [Tenoxicam] the same measures were 0.14 10^−6 cm/s and below 2 ×10⁻⁶ cm/s.
With `Cc1nnc2n1-c1ccc(Cl)cc1C(c1ccccc1)=NC2` [Alprazolam], the “Pe (linear velocity of permeation)” value is given as 5.44 10^−6 cm/s and the apparent permeability coefficient (Papp) at 18 h, 25 µg/mL is above 4 ×10⁻⁶ cm/s.
Turning to `CCCC(C)C1(CC)C(=O)NC(=S)NC1=O` (stereo not shown) [Thiopental], the Papp at 18 h, 25 µg/mL was above 4 ×10⁻⁶ cm/s.
With `C[C@]12CCC(=O)C=C1CC[C@@H]1[C@@H]2[C@@H](O)C[C@]2(C=O)[C@@H](C(=O)CO)CC[C@@H]12` [Aldosterone], the “Pe (linear velocity of permeation)” value is given as 1.19 10^−6 cm/s and the apparent permeability coefficient (Papp) at 18 h, 25 µg/mL is below 2 ×10⁻⁶ cm/s.
For `CN(C)CCCN1c2ccccc2Sc2ccc(Cl)cc21` [Chlorpromazine] the same measures were 6.36 10^−6 cm/s and above 4 ×10⁻⁶ cm/s.
For `CN(C)CCCN1c2ccccc2Sc2ccccc21` [Promazine] the same measures were 8.84 10^−6 cm/s and above 4 ×10⁻⁶ cm/s.
For `CN1C(C(=O)Nc2ccccn2)=C(O)c2ccccc2S1(=O)=O` [Piroxicam] the same measures were 2.53 10^−6 cm/s and below 2 ×10⁻⁶ cm/s.
Regarding `COc1ccc(CCN2CCC(Nc3nc4ccccc4n3Cc3ccc(F)cc3)CC2)cc1` [Astemizole], the “Pe (linear velocity of permeation)” value is 10.66 10^−6 cm/s and the Papp at 18 h, 25 µg/mL was above 4 ×10⁻⁶ cm/s.
